Source: paper PMC9497102, “Thiosemicarbazone Derivatives Developed to Overcome COTI-2 Resistance” (Cancers, 2022)
Converted amounts (≈) assume the structure as drawn. Like-named read-outs stand apart in the source and are kept apart here. Marks after values point to notes of the source that are not given here.

Assays:
SW480/Tria cells = tested on: SW480/Tria cells; parameters: method as in PMID 33190481; settings: cited from earlier work; for IC50: 72 h, MTT; for Relative Resistance SW480/Tria: IC50 of resistant subline divided by IC50 of parental SW480
[1] = parameters: method as in doi:10.1002/ejic.201200360; settings: cited from earlier work
[2] = Cyclic voltammetry of copper(II)–ligand (1:1) systems; format: physicochemical; settings: cL = cCu(II) = 1 mM, pH 7.40, 25 °C, 90% (v/v) DMSO/H2O, 0.01 V/s scan rate
Protocol: (§1) Cyclic voltammograms for the Fe(III) and Cu(II) complexes were recorded in 90% (v/v) DMSO/water solution containing 1 mM ligand and 0.5 mM FeCl3 or 1 mM CuCl2 using a conventional three-electrode system under nitrogen atmosphere and a PC-Controlled Electrochemical Measurement System (EF 451). The ionic strength was 0.10 M, adjusted by TBAN. Samples were purged for 15 min with Ar before recording the cyclic voltammograms. Platinum electrodes were used as the working and auxiliary electrodes, and Ag/AgCl (3 M KCl) was applied as the reference electrode. The electrochemical potentials were converted into the normal hydrogen electrode (NHE) scale by adding 0.222 V. The instrument was calibrated with an aqueous solution of K3[Fe(CN)6] (E1/2 = +0.386 V vs. NHE). Redox potentials were obtained at different scan rates (5–25 mV/s) in the range of −0.8 to +0.1 V. The dependence of the peak current values of the square root of the scan rates is shown in Figure S5 for the iron and copper complexes of COTI-NMeCy.

[3] = tested on: GLC-4/adr cells (ABCC1-overexpressing); parameters: method as in PMID 33190481; settings: cited from earlier work; for IC50: 72 h, MTT; for Relative Resistance GLC-4/adr: IC50 of GLC-4/adr divided by IC50 of parental GLC-4
SW480/Coti cells = tested on: SW480/Coti cells; parameters: method as in PMID 33190481; settings: cited from earlier work; for IC50: 72 h, MTT; for Relative Resistance SW480/Coti: IC50 of resistant subline divided by IC50 of parental SW480
GLC-4 cells = tested on: GLC-4 cells; parameters: method as in PMID 33190481; settings: 72 h, MTT; cited from earlier work
[4] = parameters: method as in doi:10.1002/ejic.200901174; settings: cited from earlier work
SW480 cells = tested on: SW480 cells; parameters: method as in PMID 33190481; settings: 72 h, MTT; cited from earlier work
[5] = parameters: method as in PMID 21523301; settings: cited from earlier work
[6] = Cyclic voltammetry of iron(III)–ligand (1:2) systems; format: physicochemical; settings: cL = 1 mM, pH 7.40, 25 °C, 90% (v/v) DMSO/H2O, 0.01 V/s scan rate
Protocol: as §1

[7] = Thermodynamic solubility in water at pH 7.4 (UV-vis); format: physicochemical; settings: water at pH 7.4 (20 mM HEPES buffer), aqueous buffer, thermodynamic from solid, water pH 7.4 (20 mM HEPES), 25 °C, read-out: S (meas.)
Protocol: (§2) The thermodynamic solubility of COTI-NMeCy, COTI-Nme2, COTI-NH2, and COTI-2 was measured for the saturated solutions in water at pH 7.4 (20 mM HEPES buffer) at 25.0 ± 0.1 °C. The concentrations of the compounds were determined by UV-vis spectrophotometry using stock solutions of the compounds with known concentrations dissolved in pure DMSO, and 50% and 1% (v/v) DMSO/buffered aqueous solution for the calibration. The parallel artificial membrane permeability assay (PAMPA) was applied for the ligands with a Corning Gentest pre-coated PAMPA Plate System. Peff values were calculated according to the equation reported by Yu et al..

[8] = pKa by UV-vis spectrophotometric titrations; format: physicochemical; settings: 30% (v/v) DMSO/H2O solution, I = 0.1 M (KCl), 25 °C
Protocol: (§3) The UV-vis spectra were recorded using an Agilent Cary 8454 diode array spectrophotometer in the 200 to 950 nm window, and the path length was varied between 1 and 5 cm, depending on the solubility (thus the applicable concentration). For the spectrophotometric titrations, the same instruments (Metrohm 665 Dosimat burette, Orion 710A pH-meter, Metrohm combined pH glass electrode) and experimental setup (ionic strength: 0.10 M (KCl); titrant: 0.10 M carbonate-free KOH solution in 30% (v/v) DMSO/H2O; samples: prepared in 30% (v/v) DMSO/H2O; calibration: method of Irving et al.; pH range: 1.0 to 13.5; and sample volume: 10 cm^3) were used as in our previous work. Argon overpressure was used for the Fe(II)-containing samples when the Fe(II) stock solution was added to the samples in tightly closed titration vessels, which were previously completely deoxygenated (for 20 min). Measurements were taken with ligands (10–80 μM, depending on solubility) in the presence of 1, 0.5, and 0.3 equiv. of Cu(II), Fe(II), and Fe(III) ions. Equilibrium constants, such as the proton dissociation constants (pKa) of the ligands, the overall stability constants (logβ) of the metal complexes, and the UV-vis spectra of the individual ligand or complex species were computed using the program PSEQUAD [18], as was the case in our previous works.

[9] = parameters: method as in PMID 33190481; settings: after formation of mixed-ligand GSH adduct; cited from earlier work
[10] = Iron(II) complex formation, UV-vis spectrophotometric titrations (anaerobic); format: physicochemical
Protocol: as §3

[11] = Copper(II) complex formation, UV-vis titrations and EDTA competition; format: physicochemical
Protocol: as §3
The conditional stability constants (β’) of the Cu(II) complexes were calculated from competition reactions with EDTA at pH = 5.9 using MES (50 mM) when the metal:ligand ratio was 1:1 (clig = cCu between 10 and 80 μM). Individual samples were prepared in which the ligand:EDTA ratio was variable between 1:0 and 1:50. After a 3 h incubation period, UV-vis spectra were collected. The calculation of the β’ (CuL) values was performed following the same method as that in our previous work using the logβ’5.90 = 13.89 of complex [Cu(EDTA)]^2− obtained from the previously reported equilibrium constants of EDTA and its Cu(II) complex.

[12] = Iron(III) complex formation, UV-vis spectrophotometric titrations; format: physicochemical
Protocol: as §3

[13] = Distribution coefficient, shake-flask n-octanol/buffer pH 7.4; format: physicochemical; settings: n-octanol/buffered aqueous solution; n-octanol/water, pH 7.4, 25 °C; read-out: log D7.4 (meas.)
Protocol: Distribution coefficient (D7.4) values of COTI-NH2 were determined by the shake-flask method in n-octanol/buffered aqueous solution at pH 7.4 in 20 mM phosphate buffer (0.10 M KCl) at 25.0 ± 0.2 °C following a similar approach to that reported in our previous works. The other compounds and all of their Cu(II) complexes were too lipophilic to obtain experimental data. Thus, the logP values were calculated for COTI-NMeCy, COTI-Nme2, and COTI-2 (MarvinSketch,version 16.12.12.0, calculation module developed by ChemAxon (Budapest, Hungary), http://www.chemaxon.com/products/marvin/marvinsketch/ (accessed on 20 August 2022)).

[14] = Parallel artificial membrane permeability assay (PAMPA); format: in vitro ADME; settings: pH 7.4, 25 °C, read-out: Peff
Protocol: as §2

[15] = Zinc(II) complex formation, UV-vis spectrophotometric titrations; format: physicochemical
[16] = T = 25.0 °C, I = 0.10 M (KCl), 30% (v/v) DMSO/H2O
[17] = calculated at cM = 1 μM, cL = 10 μM, pH = 7.40

NC(=S)NN=Cc1ncccc1N [Triapine, 3-aminopyridine-2-carboxaldehyde thiosemicarbazone]
IC50 (SW480/Tria cells): > 50 µM | Relative Resistance SW480/Tria (SW480/Tria cells): >61 | logD7.4 [1]: +0.85 | E′ vs. NHE, copper(II)–ligand (1:1) systems [2]: -0.13 V | IC50 [3]: 0.57 ± 0.05 µM | Relative Resistance GLC-4/adr [3]: 0.9 ^n.s. | IC50 (SW480/Coti cells): 0.81 ± 0.08 µM | Relative Resistance SW480/Coti (SW480/Coti cells): 1.0 ^n.s. | IC50 (GLC-4 cells): 0.65 ± 0.09 µM | logβ [CuL]^+ [4]: 13.9 | IC50 (SW480 cells): 0.82 ± 0.18 µM | E′ of the iron complex [5]: +0.07 V | E’ vs. NHE, iron(III)–ligand (1:2) systems [6]: +0.03 V

NC(=S)N/N=C1\CCCc2cccnc21 [COTI-NH2]
IC50 (SW480/Tria cells): > 20 µM | Relative Resistance SW480/Tria (SW480/Tria cells): >2.5 | solubility thermodynamic [7]: 737 µM (≈ 162 µg/mL) | pKa ([8]; read-out: pKa (H2L)): 4.39 ± 0.01 | pKa ([8]; read-out: pKa (HL)): 12.22 ± 0.01 | E′ vs. NHE, copper(II)–ligand (1:1) systems [2]: -0.17 V | redox reaction of the copper(II) complex with GSH [9]: relatively slow redox reaction took place | logβ [Fe(II)L2] [10, 16]: 31.21 ± 0.09 | logβ [Fe(II)L]^+ [10, 16]: 17.36 ± 0.06 | pFe(II) ([10]; –log[free Fe(II)] calculated at cFe = 1 μM, cL = 10 μM, pH = 7.40): 17.4 | IC50 [3]: 3.65 ± 0.41 µM | Relative Resistance GLC-4/adr [3]: 1.0 ^n.s. | IC50 (SW480/Coti cells): 4.39 ± 0.56 µM | Relative Resistance SW480/Coti (SW480/Coti cells): 0.6 *** | pCu [11, 17]: 13.1 | logβ5.9′ [CuL]^+ ([11]; conditional stability constant, EDTA competition at pH = 5.90): 10.59 ± 0.08 | logβ [CuL]^+ ([11]; β = β’ × αH, [H+] = 10^–5.90 M): 16.92 | IC50 (GLC-4 cells): 3.64 ± 0.39 µM | pFe(III)* ([12]; Fe(III) hydroxido species also considered as unbound metal, cFe = 1 μM, cL = 10 μM, pH = 7.40): 10.4 | logβ [Fe(III)L2]^+ [12, 16]: 32.29 ± 0.08 | logβ [Fe(III)L]^2+ [12, 16]: 20.00 ± 0.09 | pFe(III) ([12]; –log[free Fe(III)] calculated at cFe = 1 μM, cL = 10 μM, pH = 7.40): 18.5 | logD [13]: 1.64 | Papp [14]: 6.7 ± 0.7 ×10⁻⁶ cm/s | logβ [ZnL2] [15, 16]: 25.42 ± 0.04 | logβ [ZnL]^+ [15, 16]: 14.07 ± 0.04 | pZn [15, 17]: 11.6 | IC50 (SW480 cells): 7.85 ± 0.92 µM
